Data on five compounds can be found in paper PMC7260106 (Toxicology in vitro : an international journal published in …, 2020).

Structures are written as SMILES.

Assay [1] deals with T1, Ah receptor (AhR) (Mus musculus, UniProt P30561).
T1 sequence (P30561 10-848): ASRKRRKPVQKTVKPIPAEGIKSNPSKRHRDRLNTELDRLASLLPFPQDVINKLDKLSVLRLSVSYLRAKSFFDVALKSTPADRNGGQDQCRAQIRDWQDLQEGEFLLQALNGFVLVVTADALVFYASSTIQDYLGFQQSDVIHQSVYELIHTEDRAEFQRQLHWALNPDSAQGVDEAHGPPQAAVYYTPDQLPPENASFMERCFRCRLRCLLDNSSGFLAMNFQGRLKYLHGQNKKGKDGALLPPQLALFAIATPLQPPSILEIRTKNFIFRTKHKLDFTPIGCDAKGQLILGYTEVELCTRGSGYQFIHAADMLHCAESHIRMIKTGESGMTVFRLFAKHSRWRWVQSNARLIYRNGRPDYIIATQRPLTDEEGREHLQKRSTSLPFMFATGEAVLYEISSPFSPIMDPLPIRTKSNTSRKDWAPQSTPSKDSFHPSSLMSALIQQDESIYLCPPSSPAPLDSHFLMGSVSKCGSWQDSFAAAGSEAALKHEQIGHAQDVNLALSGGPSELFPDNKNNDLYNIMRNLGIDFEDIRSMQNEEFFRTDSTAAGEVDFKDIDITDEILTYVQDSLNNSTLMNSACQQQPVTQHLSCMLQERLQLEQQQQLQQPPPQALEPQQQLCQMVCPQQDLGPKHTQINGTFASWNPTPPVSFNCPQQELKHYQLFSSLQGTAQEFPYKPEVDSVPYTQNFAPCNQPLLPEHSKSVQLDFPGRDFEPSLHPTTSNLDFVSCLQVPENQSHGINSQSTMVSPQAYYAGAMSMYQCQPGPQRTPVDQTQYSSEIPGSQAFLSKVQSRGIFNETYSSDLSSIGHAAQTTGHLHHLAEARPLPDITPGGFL
As to the kind of experiment: yAhR nuclear translocation in yAHAYc6 cells, fluorescence microscopy. In kind it is cell-based.

Assay [2] deals with T1, Ah receptor (AhR). Kind of assay: yAhR nuclear translocation in yAHAYc6 cells. The assay is classed as cell-based.

`Cc1ccc2cc3c(ccc4ccccc43)c3c2c1CC3` [3-methylcholanthrene]: the “yAhR nuclear translocation in yAHAYc6 cells, fluorescence microscopy” value (“yAhR nuclear translocation” for short) at Ah receptor (AhR) [1] is “known AhR agonists (TCDD, DBA, PCB77, indirubin, 3MC and BNF”.
For the compound `Clc1ccc(-c2ccc(Cl)c(Cl)c2)cc1Cl` [PCB77, 3,3’,4,4’-Tetrachlorobiphenyl], the “yAhR nuclear translocation” value at Ah receptor (AhR) [1] is “known AhR agonists (TCDD, DBA, PCB77, indirubin, 3MC and BNF”.
For orientation: EC50 means the concentration needed to bring the measured effect to its halfway point. High values mean a less potent agent, low ones a more potent agent. Turning to `Clc1cc2c(cc1Cl)Oc1cc(Cl)c(Cl)cc1O2` [TCDD, 2,3,7,8-tetrachlorodibenzo-p-dioxin], the EC50 on Ah receptor (AhR) [2] was 0.2 nM. In other words, the sub-nanomolar range.
With `c1ccc2c(c1)ccc1cc3c(ccc4ccccc43)cc12` [dibenz(a,h)anthracene], at Ah receptor (AhR) [1], the “yAhR nuclear translocation” value is “known AhR agonists (TCDD, DBA, PCB77, indirubin, 3MC and BNF”.
Consider `O=C1Nc2ccccc2/C1=C1/Nc2ccccc2C1=O` [indirubin], for which the “yAhR nuclear translocation” value at Ah receptor (AhR) [1] was “known AhR agonists (TCDD, DBA, PCB77, indirubin, 3MC and BNF”.
